{"source": "patent US20180050107A1", "about": "“NEUROSTEROID COMPOSITIONS AND METHODS OF USE THEREOF” (Janssen Pharmaceutica NV, priority 2016, published 2018)", "origin": "cited, not measured here", "key": {"TrkB receptors": {"biological_target": "T1, TrkB receptors (Mus musculus, UniProt P15209)", "T1 construct": "its downstream PI3K/Akt and MAPK receptors in the mouse hippocampus; host or cells: mouse hippocampus", "T1 sequence (P15209 32-821)": "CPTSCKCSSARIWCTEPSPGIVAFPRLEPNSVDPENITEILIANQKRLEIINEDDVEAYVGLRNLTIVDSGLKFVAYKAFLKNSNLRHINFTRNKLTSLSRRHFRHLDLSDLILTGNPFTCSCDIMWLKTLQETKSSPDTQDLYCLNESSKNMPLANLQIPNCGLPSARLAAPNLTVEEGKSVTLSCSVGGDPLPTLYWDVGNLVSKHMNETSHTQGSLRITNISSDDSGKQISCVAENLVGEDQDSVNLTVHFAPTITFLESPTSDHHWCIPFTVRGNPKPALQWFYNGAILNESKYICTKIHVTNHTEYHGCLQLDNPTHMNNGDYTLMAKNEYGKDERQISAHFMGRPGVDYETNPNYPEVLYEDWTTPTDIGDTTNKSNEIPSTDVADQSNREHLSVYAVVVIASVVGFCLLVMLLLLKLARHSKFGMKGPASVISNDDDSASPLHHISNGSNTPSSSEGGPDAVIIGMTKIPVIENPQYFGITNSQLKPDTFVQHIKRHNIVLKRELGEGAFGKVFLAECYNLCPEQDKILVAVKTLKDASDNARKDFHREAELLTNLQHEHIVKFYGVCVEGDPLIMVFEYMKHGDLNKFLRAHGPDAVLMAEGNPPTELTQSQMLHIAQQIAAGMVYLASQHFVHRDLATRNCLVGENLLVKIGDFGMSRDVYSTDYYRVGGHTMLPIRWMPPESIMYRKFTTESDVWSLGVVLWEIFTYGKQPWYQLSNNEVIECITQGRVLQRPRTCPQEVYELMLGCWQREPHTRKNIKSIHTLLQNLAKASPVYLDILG", "details": "mouse hippocampus"}, "[1]": {"details": "ICU patients"}, "[2]": {"biological_target": "T2, rat cerebellar GABA delta subunits (Rattus norvegicus, UniProt P18506)", "T2 construct": "rat cerebellar GABA delta subunits; host or cells: rat cerebellum", "T2 sequence (P18506 17-449 limits assumed)": "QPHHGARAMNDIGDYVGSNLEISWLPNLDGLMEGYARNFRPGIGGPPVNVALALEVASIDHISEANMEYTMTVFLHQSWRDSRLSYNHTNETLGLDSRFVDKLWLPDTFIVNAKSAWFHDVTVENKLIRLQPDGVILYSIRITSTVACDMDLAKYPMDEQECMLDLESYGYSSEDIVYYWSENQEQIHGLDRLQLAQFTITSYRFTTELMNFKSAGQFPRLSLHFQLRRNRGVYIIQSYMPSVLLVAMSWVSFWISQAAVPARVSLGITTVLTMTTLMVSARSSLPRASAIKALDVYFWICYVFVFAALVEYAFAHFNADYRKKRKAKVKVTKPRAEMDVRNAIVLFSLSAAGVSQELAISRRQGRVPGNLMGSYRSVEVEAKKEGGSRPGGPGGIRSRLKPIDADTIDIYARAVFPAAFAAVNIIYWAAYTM", "T2 sequence (P30191 20-453 partner)": "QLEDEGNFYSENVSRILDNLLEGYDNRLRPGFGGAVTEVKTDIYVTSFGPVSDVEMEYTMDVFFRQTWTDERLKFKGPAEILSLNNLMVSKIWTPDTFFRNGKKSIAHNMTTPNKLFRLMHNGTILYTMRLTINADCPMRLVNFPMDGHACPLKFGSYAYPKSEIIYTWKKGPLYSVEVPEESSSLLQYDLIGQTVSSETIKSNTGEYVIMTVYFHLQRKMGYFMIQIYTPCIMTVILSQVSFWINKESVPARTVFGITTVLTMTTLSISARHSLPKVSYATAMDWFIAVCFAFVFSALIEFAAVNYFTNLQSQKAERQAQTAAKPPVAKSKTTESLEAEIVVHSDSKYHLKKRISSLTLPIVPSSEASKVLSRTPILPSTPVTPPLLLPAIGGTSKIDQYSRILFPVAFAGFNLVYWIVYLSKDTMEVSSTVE"}, "[3]": {"assay": "not given", "remark": "listed apart in the source"}, "[4]": {"details": "in vivo"}, "[5]": {"assay": "not given", "remark": "listed apart in the source"}, "[6]": {"details": "gangliosides added to conventional liposomes"}, "[7]": {"system": "MDA-MB-231 breast cancer cells", "details": "0.1 μM"}, "MMP-9": {"system": "MMP-9", "details": "0.1 μM"}, "β2-AR": {"biological_target": "β2-AR (Homo sapiens, UniProt P07550)", "sequence (P07550 whole entry)": "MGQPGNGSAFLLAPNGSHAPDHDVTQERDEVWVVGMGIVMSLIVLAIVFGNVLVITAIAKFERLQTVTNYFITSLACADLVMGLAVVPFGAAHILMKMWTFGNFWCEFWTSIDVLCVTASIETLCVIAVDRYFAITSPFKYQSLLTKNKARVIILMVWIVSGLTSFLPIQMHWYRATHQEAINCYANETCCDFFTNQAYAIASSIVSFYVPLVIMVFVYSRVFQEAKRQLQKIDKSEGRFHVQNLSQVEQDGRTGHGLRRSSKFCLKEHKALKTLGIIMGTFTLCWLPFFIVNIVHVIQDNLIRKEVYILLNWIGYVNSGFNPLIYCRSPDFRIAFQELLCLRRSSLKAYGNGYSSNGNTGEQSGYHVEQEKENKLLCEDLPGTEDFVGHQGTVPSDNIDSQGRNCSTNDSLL", "details": "0.1 μM"}, "[8]": {"details": "in vivo", "remark": "listed apart in the source"}, "GABA(A) delta [9]": {"biological_target": "T3, GABA(A) delta (Homo sapiens, UniProt O14764)", "T3 sequence (O14764 25-452)": "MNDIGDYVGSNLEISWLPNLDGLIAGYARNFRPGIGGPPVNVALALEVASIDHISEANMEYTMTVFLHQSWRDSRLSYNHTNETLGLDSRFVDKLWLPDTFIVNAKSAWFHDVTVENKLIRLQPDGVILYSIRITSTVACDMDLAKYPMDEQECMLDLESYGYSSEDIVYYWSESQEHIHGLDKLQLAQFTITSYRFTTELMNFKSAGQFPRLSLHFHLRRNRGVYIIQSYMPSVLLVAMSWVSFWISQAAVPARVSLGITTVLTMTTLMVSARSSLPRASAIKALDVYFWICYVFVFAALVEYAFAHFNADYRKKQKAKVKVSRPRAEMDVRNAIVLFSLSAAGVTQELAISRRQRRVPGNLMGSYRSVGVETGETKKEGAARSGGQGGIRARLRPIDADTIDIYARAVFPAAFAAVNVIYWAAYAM", "details": "10 uMol/L, in vitro"}, "neurons": {"system": "neurons", "details": "read-out: EC50 for suppression of apoptosis in neurons"}, "lung cancer patients": {"system": "lung cancer patients", "details": "combination with EGFR-TKI chemotherapy"}, "GABA(A) delta [10]": {"biological_target": "T3, GABA(A) delta", "details": "1 μMol/L"}, "[11]": {"details": "in vivo", "remark": "listed apart in the source"}, "[12]": {"details": "oral administration, healthy volunteers"}, "GABA(A) delta [13]": {"biological_target": "T3, GABA(A) delta", "details": "100 uM"}, "[14]": {"details": "in vivo", "remark": "listed apart in the source"}, "[15]": {"details": "in vivo", "remark": "listed apart in the source"}, "[16]": {"assay": "not given", "remark": "listed apart in the source"}, "PPAR-gamma receptors": {"biological_target": "T4, PPAR-gamma receptors (Homo sapiens, UniProt P37231)", "T4 sequence (P37231 1-505)": "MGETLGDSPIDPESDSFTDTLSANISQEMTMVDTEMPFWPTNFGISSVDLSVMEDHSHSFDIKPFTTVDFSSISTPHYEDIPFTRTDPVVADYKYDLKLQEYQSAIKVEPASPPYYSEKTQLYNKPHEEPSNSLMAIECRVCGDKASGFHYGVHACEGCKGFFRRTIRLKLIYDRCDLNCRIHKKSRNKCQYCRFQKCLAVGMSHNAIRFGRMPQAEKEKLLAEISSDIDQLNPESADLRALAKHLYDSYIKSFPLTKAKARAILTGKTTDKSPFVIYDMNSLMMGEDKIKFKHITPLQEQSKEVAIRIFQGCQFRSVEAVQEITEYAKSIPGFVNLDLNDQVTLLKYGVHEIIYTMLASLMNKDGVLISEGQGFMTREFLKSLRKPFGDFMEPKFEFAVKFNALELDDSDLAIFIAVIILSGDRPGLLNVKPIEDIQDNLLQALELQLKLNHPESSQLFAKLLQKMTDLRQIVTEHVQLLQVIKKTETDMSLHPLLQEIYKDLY", "details": "read-out: EC for activation of PPAR-gamma receptors"}}, "note": "Read-outs that look alike come from different tables or passages of the source. Where a SMILES comes first, the peptide text is derived from it.", "data": [{"compound": "O=c1cc(-c2ccccc2)oc2c(O)c(O)ccc12", "note": "[7,8-DHF, 7,8 dihydroxyflavone]", "values": [{"measurement": "concentration activating TrkB receptors", "setting": "TrkB receptors", "value": 250, "unit": "nM"}]}, {"compound": "C[C@H](N)C(=O)N[C@@H](CCC(N)=O)C(=O)O", "note": "[AG, Alanyl-Glutamine] (H-Ala-Gln-OH)", "values": [{"measurement": "log P", "value": "−2.15"}, {"measurement": "plasma half-life", "setting": "[1]", "value": 15.6, "unit": "min"}]}, {"compound": "CC(=O)[C@H]1CC[C@H]2[C@@H]3CC[C@H]4C[C@H](O)CC[C@]4(C)[C@H]3CC[C@]12C", "note": "[Allopregnanolone, 3α-hydroxy-5α-pregnan-20-one]", "values": [{"measurement": "concentration range potentiating rat cerebellar GABA delta subunits", "setting": "[2]", "value": "nanomolar range"}]}, {"compound": "NCCC(=O)N[C@@H](Cc1cnc[nH]1)C(=O)O", "note": "[Carnosine]", "values": [{"measurement": "log P", "value": "−1.19"}, {"measurement": "half-life in human plasma", "setting": "[3]", "value": "< 5", "unit": "min"}]}, {"compound": "O=C1N[C@@H](Cc2cnc[nH]2)C(=O)N2CCC[C@@H]12", "note": "[Cyclo His-Pro]", "values": [{"measurement": "log P", "value": "−1.48"}, {"measurement": "biphasic half-life, first phase", "setting": "[4]", "value": 1, "unit": "min"}, {"measurement": "biphasic half-life, second phase", "setting": "[4]", "value": 33, "unit": "min"}]}, {"compound": "Nc1ccn([C@@H]2O[C@H](CO)[C@@H](O)[C@@H]2O)c(=O)n1", "note": "[Cytarabine]", "values": [{"measurement": "half-life in plasma", "setting": "[5]; continuous infusion", "value": 126, "unit": "min"}, {"measurement": "half-life", "setting": "[5]; intravenously delivered", "value": "7 to 107", "unit": "min"}, {"measurement": "half-life", "setting": "[5]; subcutaneously delivered", "value": 18, "unit": "min"}]}, {"compound": "O=C[C@H](O)[C@@H](O)[C@H](O)[C@H](O)COP(=O)(O)O", "note": "[Example G6P, glucose-6-phosphate]", "values": [{"measurement": "log P", "value": "−3.24"}, {"measurement": "flux from the liposome into plasma", "setting": "[6]", "value": "about 5 % per hour"}]}, {"compound": "O=C(O)[C@H]1O[C@@H](Oc2c(-c3ccc(O)c(O)c3)oc3cc(O)cc(O)c3c2=O)[C@H](O)[C@@H](O)[C@@H]1O", "note": "[Example Q3G, quercetin-3-O-glucuronide]", "values": [{"measurement": "invasion of MDA-MB-231 breast cancer cells", "setting": "[7]", "value": "suppressed invasion"}, {"measurement": "MMP-9 induction", "setting": "MMP-9", "value": "suppressed"}, {"measurement": "log P", "value": 2.10}, {"measurement": "binding of [(3)H]-NA to β2-AR", "setting": "β2-AR", "value": "inhibited the binding"}, {"measurement": "plasma elimination half-life", "setting": "[8]", "value": 140, "unit": "min"}]}, {"compound": "N[C@@H](CCC(=O)NCCS(=O)(=O)O)C(=O)O", "note": "[GGT, Gamma-Glutamyltaurine]", "values": [{"measurement": "log P", "value": "−3.36"}]}, {"compound": "C=CCc1ccc(O)c(-c2ccc(O)c(CC=C)c2)c1", "note": "[Honokiol]", "values": [{"measurement": "increase of GABA current", "setting": "GABA(A) delta [9]", "value": "about 900%"}]}, {"compound": "O=C1C[C@@H](c2ccccc2)Oc2cc(O)cc(O)c21", "note": "[Pinocembrin]", "values": [{"measurement": "EC50", "setting": "neurons", "value": 0.1, "unit": "µM"}]}, {"compound": "CC(C)=CCC[C@](C)(O)[C@H]1CC[C@]2(C)[C@@H]1[C@H](O)C[C@@H]1[C@@]3(C)CC[C@H](O[C@@H]4O[C@H](CO)[C@@H](O)[C@H](O)[C@H]4O[C@@H]4O[C@H](CO)[C@@H](O)[C@H](O)[C@H]4O)C(C)(C)[C@@H]3CC[C@]12C", "note": "[Rg3, ginsenoside Rg3]", "values": [{"measurement": "increase in the duration of progression free survival", "setting": "lung cancer patients", "value": 20, "unit": "%"}]}, {"compound": "C[C@]12CC[C@@H](O)C[C@H]1CC[C@@H]1[C@@H]2CC[C@]2(C)[C@@H](C(=O)CO)CC[C@@H]12", "note": "[THDOC, tetrahydrodeoxycorticosterone]", "values": [{"measurement": "increase of GABA current", "setting": "GABA(A) delta [10]", "value": "at least 700%"}]}, {"compound": "NC(=O)[C@@H]1CCCN1C(=O)[C@H](Cc1cnc[nH]1)NC(=O)[C@@H]1CCC(=O)N1", "note": "[TRH]", "values": [{"measurement": "half-life", "setting": "[11]", "value": 7.6, "unit": "min"}]}, {"compound": "NCCS(=O)(=O)O", "note": "[Taurine]", "values": [{"measurement": "log P", "value": "−3.36"}, {"measurement": "half-life", "setting": "[12]", "value": 60, "unit": "min"}]}, {"compound": "O=C(O)[C@H]1O[C@@H](Oc2cc3oc(-c4ccccc4)cc(=O)c3c(O)c2O)[C@H](O)[C@@H](O)[C@@H]1O", "note": "[baicalin]", "values": [{"measurement": "log P", "value": 1.27}]}, {"compound": "COc1ccc([C@@H]2CC(=O)c3c(O)cc(O)cc3O2)cc1O", "note": "[hesperetin]", "values": [{"measurement": "log P", "value": 2.90}]}, {"compound": "O=c1c(O[C@@H]2O[C@H](CO)[C@H](O)[C@H](O)[C@H]2O)c(-c2ccc(O)c(O)c2)oc2cc(O)cc(O)c12", "note": "[hyperoside]", "values": [{"measurement": "log P", "value": 1.75}]}, {"compound": "CC1(C)C2CC=C(CO)C1C2", "note": "(centres unmarked) [myrtenol]", "values": [{"measurement": "GABA(A) delta agonism", "setting": "GABA(A) delta [13]", "value": "GABA(A) delta agonist"}]}, {"compound": "CC[C@H](C)[C@@H]1NC(=O)[C@H](Cc2ccc(O)cc2)NC(=O)[C@@H](N)CSSC[C@@H](C(=O)N2CCC[C@H]2C(=O)N[C@@H](CC(C)C)C(=O)NCC(N)=O)NC(=O)[C@H](CC(N)=O)NC(=O)[C@H](CCC(N)=O)NC1=O", "note": "[oxytocin]", "values": [{"measurement": "crossing of the blood brain barrier", "setting": "[14]", "value": "failure to cross the blood brain barrier"}, {"measurement": "half-life", "setting": "[15]", "value": "~6.8", "unit": "min"}]}, {"compound": "O=C(O)[C@H]1O[C@@H](Oc2cc3oc(-c4ccc(O)cc4)cc(=O)c3c(O)c2O)[C@H](O)[C@@H](O)[C@@H]1O", "note": "[scutellarin]", "values": [{"measurement": "bioavailability", "setting": "[16]; oral", "value": "less than 3%"}, {"measurement": "factor of decrease of plasma concentration", "setting": "[16]; over about an hour", "value": "about 10"}]}, {"compound": "CC1=CC(O)C2CC1C2(C)C", "note": "(centres unmarked) [verbenol]", "values": [{"measurement": "GABA(A) delta agonism", "setting": "GABA(A) delta [13]", "value": "GABA(A) delta agonist"}]}, {"compound": "hesperetin glucuronide", "values": [{"measurement": "log P", "value": 0.12}, {"measurement": "EC50", "setting": "PPAR-gamma receptors", "value": "~100", "unit": "µM"}]}]}
